Test results as given in EP1022028A1, “SUSTAINED-RELEASE ORAL PREPARATION” (Takeda Chemical Industries, Ltd., priority 1997, dated 1999).

How the values were obtained:
[1] = acute oral toxicity (LD50) in mice; settings: mouse, in vivo, mice (NRM1)
From the text: (§1) The sustained-release oral preparation of the present invention is low in toxic potential and can be administered safely to mammals (e.g. cat, bovine, dog, horse, goat, monkey, human) requiring the treatment or prophylaxis of diabetes or inhibition of postprandial hyperglycemia. Particularly, the valiolamine derivative for use in the present invention, for example [2-hydroxy-1-(hydroxymethyl)ethyl]valiolamine (voglibose), is very high in safety rating with the acute oral toxicity (LD50) values in mice (NRM1) and rats (Wistar) being 14.7 ∼ 21.5 grams/kilogram body weight (mice) and about 20 grams/kilogram body weight (rats), respectively.

[2] = acute oral toxicity (LD50) in rats; settings: rat, in vivo, rats (Wistar)
From the text: as §1

Molecule OCC(CO)N[C@H]1C[C@](O)(CO)[C@@H](O)[C@H](O)[C@H]1O [voglibose, 1L(1S)-(1(OH)2,3,5/1,3)-5-[[2-hydroxy-1-(hydroxymethyl)ethyl]amino]-1-C-(hydroxymethyl)-1,2,3,4-cyclohexanetetrol] has an LD50 [1] of 14700 to 21500 mg/kg and an LD50 [2] of ~20000 mg/kg.
